# Results: patent publication US20250034182A1, “PHOSPHOLIPID COMPOUNDS AND METHODS OF MAKING AND USING THE SAME” (priority 2021, published 2025)
# Assays:
# [1] = tested on: Respiratory syncytial virus recombinant with luciferase (RSV-Luc5) in NHBE cells; assay: NHBE RSV-Luc5 384-well assay (EC50 RSVFLUC NHBE-384, Example U); type: cell-based; conditions: human respiratory syncytial virus, 72 h, read-out: RSV FLuc NHBE 384 EC50 (v2) (nM) (per Ex. U)
# Protocol: Normal Human Bronchial Epithelial (NHBE) cells were purchased from Lonza (Walkersville, MD Cat #CC2540) and maintained in BEGM Bronchial Epithelial Cell (Growth Medium BulletKit (Lonza CC-3170).
# Cells were thawed, expanded, and were used for experiments at passage 2. Respiratory syncytial virus recombinant with luciferase (RSV-Luc5) (≥1×10^7 Infectious Units/ml (IU/ml) determined by TCID50) was purchased from Microbiologics (Saint Cloud, MN). Viral replication was determined in NHBE cells in the following manner.
# (§1) Compounds are prepared in 100% DMSO in 384-well polypropylene plates (Greiner, Monroe, NC, Cat #784201) with 8 compounds per plate in grouped replicates of 4 at 10 serially diluted concentrations (1:3). The serially diluted compounds were transferred to low dead volume Echo plates (Labcyte, Sunnyvale, CA, Cat #LP-0200).
# The test compounds were spotted to 384-well assay plates (Greiner, Monroe, NC, Cat #781091) at 200 nL per well. NHBE cells were harvested and suspended in BEGM Bronchial Epithelial Cell Growth Medium BulletKit and seeded to the pre-spotted assay plates at 5,000 cells per well in 30 μL. RSV-Luc5 virus was diluted in BEGM Bronchial Epithelial Cell Growth Medium BulletKit at 500,000 Infectious Units (IU) per mL and 10 μL per well was added to the assay plates containing cells and compounds, for an MOI of 1. The assay plates were incubated for 3 days at 37° C. and 5% CO2. At the end of incubation, One-Glo reagent (Promega, Madison, WI, Cat #E6120) was prepared. The assay plates and One-Glo reagent were equilibrated to room temperature for at least 15 minutes. 40 μL per well of One-Glo reagent was added and the plates were incubated at room temperature for 15 minutes before reading the luminescence signal on an EnVision multimode plate reader (Perkin Elmer, Waltham, MA). Remdesivir was used as positive control and DMSO was used as negative control. Values were normalized to the positive and negative controls (as 0% and 100% replication, respectively) and data was fitted using non-linear regression analysis by Gilead's dose response tool. The EC50 value for each compound was defined as the concentration reducing the viral replication by 50%.
# [2] = tested on: Human Rhinovirus 1B (HRV1B) in H1-HeLa cells; assay: H1-HeLa HRV-CTG EC50, HRV1B (Example Z); type: cell-based; conditions: Rhinovirus A, 96 h, MOI 0.5, 4 days, Celltiter-Glo, read-out: HRV 1B HELA EC50 (nM) (per Ex. Z)
# From the text: H1-Hela cell line (ATCC, Manassas, VA, Cat #CRL-1958) was maintained in Dulbecco's […] (DMEM) (Corning, New York, NY, Cat #15-018CM) supplemented with 10% fetal bovine serum (FBS) (Hyclone, Logan, UT, Cat #SH30071-03), and 1× Penicillin-Streptomycin-L-Glutamine (Coming, New York, NY, Cat #30-009-C1). Cells were passaged 2 times per week to maintain sub-confluent densities and were used for experiments at passage 5-30. The Human Rhinovirus 1B (HRV1B) (ATCC, Manassas, VA, Cat #VR-1645), Human Rhinovirus 14 (HRV14) (ATCC, Manassas, VA, Cat #VR-284), and Human Rhinovirus 16 (HRV16) (ATCC, Manassas, VA, Cat #BR-283) was obtained through ATCC. Viral infection was monitored by determining viability of H1-HeLa cells as described below.
# as §1, with “Test molecules” for “Compounds”
# The test compounds were spotted to 384-well assay plates (Greiner, Monroe, NC, Cat #781091) at 200 nL per well using an Echo acoustic dispenser (Labcyte, Sunnyvale, CA). H1-HeLa cells were harvested and suspended in DMEM (supplemented with 2% FBS and 1× Penicillin-Streptomycin-L-Glutamine) and seeded to the pre-spotted assay plates at 5,000 cells per well in 30 μL. HRV1B, HRV14, and HRV16 was diluted in DMEM (supplemented with 2% FBS and 1× Penicillin-Streptomycin-L-Glutamine) at 97.1 million Infectious Units (IU) per mL, 151 million IU per mL and 221 million IU per mL respectively. 10 μL of virus per well was added to the assay plates containing cells and compounds, for an MOI of 0.5, 1.0, and 0.25 respectively. The assay plates were incubated for 4 days at 37° C. and 5% CO2. At the end of incubation, Celltiter-Glo (Promega, Madison, WI, Cat #G7573) was prepared. The assay plates and Celltiter-Glo reagent were equilibrated to room temperature for at least 15 minutes. 40 μL per well of Celltiter-Glo reagent was added and the plates were incubated at room temperature for 15 minutes before reading the luminescence signal on an EnVision multimode plate reader (Perkin Elmer, Waltham, MA). Rupintrivir was used as positive control and DMSO was used as negative control. Values were normalized to the positive and negative controls (as 0% and 100% replication, respectively) and data was fitted using non-linear regression analysis by Gilead's dose response tool. The EC50 value for each compound was defined as the concentration reducing viral replication by 50%.
smiles,measurement,setting,value
"CCCCCCCCCCCCCCCCCC[C@@H](COP(=O)(O)OC[C@@]1(C#N)O[C@@H](c2ccc3c(N)ncnn23)[C@H](O)[C@@H]1O)OCc1cc(F)cc(C#N)c1 [Compound 37, ((2R,3S,4R)-5-(4-aminopyrrolo[2,1-f][1,2,4]triazin-7-yl)-2-cyano-3,4-dihydroxytetrahydrofuran-2-yl)methyl ((S)-2-((3-cyano-5-fluorobenzyl)oxy)icosyl) hydrogen phosphate]",EC50,[1],82 nM
same,EC50,[2],332 nM
"CCCCCCCCCCCCCCCCCCCC[C@H](COP(=O)(O)OC[C@@]1(C#N)O[C@@H](c2ccc3c(N)ncnn23)[C@H](O)[C@@H]1O)OCc1cc(F)cc(C#N)c1 [Compound 34, ((2R,3S,4R)-5-(4-aminopyrrolo[2,1-f][1,2,4]triazin-7-yl)-2-cyano-3,4-dihydroxytetrahydrofuran-2-yl)methyl ((R)-2-((3-cyano-5-fluorobenzyl)oxy)docosyl) hydrogen phosphate]",EC50,[1],272 nM
same,EC50,[2],281 nM
"CCCCCCCCCCCCCCCCCCOCC(COc1cc(F)cc(C#N)c1)COP(=O)(O)OC[C@@]1(C#N)O[C@@H](c2ccc3c(N)ncnn23)[C@H](O)[C@@H]1O (stereo partly drawn) [Compound 43, ((2R,3S,4R,5S)-5-(4-aminopyrrolo[2,1-f][1,2,4]triazin-7-yl)-2-cyano-3,4-dihydroxytetrahydrofuran-2-yl)methyl (3-(3-cyano-5-fluorophenoxy)-2-((octadecyloxy)methyl)propyl) hydrogen phosphate]",EC50,[1],98 nM
same,EC50,[2],36 nM
"CCCCCCCCCCCCCCCCCCOC[C@H](COP(=O)(O)OC[C@@]1(C#N)O[C@@H](c2ccc3c(N)ncnn23)[C@H](O)[C@@H]1O)OCc1cccc(C#N)n1 [Compound 68, ((2R,3S,4R)-5-(4-aminopyrrolo[2,1-f][1,2,4]triazin-7-yl)-2-cyano-3,4-dihydroxytetrahydrofuran-2-yl)methyl ((R)-2-((6-cyanopyridin-2-yl)methoxy)-3-(octadecyloxy)propyl) hydrogen phosphate]",EC50,[1],9 nM
same,EC50,[2],12 nM
"CCCCCCCCCCCCCCCCCCOC[C@H](COP(=O)(O)OC[C@@]1(C#N)O[C@@H](c2ccc3c(N)ncnn23)[C@H](O)[C@@H]1O)Oc1ccc(C#N)c(OC(C)C)c1 [Compound 23, ((2R,3S,4R,5S)-5-(4-aminopyrrolo[2,1-f][1,2,4]triazin-7-yl)-2-cyano-3,4-dihydroxytetrahydrofuran-2-yl)methyl ((R)-2-(4-cyano-3-isopropoxyphenoxy)-3-(octadecyloxy)propyl) hydrogen phosphate]",EC50,[1],4 nM
same,EC50,[2],4 nM
"CCCCCCCCCCCCCCOC[C@H](COP(=O)(O)OC[C@@]1(C#N)O[C@@H](c2ccc3c(N)ncnn23)[C@H](O)[C@@H]1O)OCc1ccc(C#N)cc1F [Compound 75, ((2R,3S,4R,5S)-5-(4-aminopyrrolo[2,1-f][1,2,4]triazin-7-yl)-2-cyano-3,4-dihydroxytetrahydrofuran-2-yl)methyl ((R)-2-((4-cyano-2-fluorobenzyl)oxy)-3-(tetradecyloxy)propyl) hydrogen phosphate]",EC50,[1],12 nM
same,EC50,[2],23 nM
"CCCCCCCCCCCCCCCCC[C@@H](COP(=O)(O)OC[C@@]1(C#N)O[C@@H](c2ccc3c(N)ncnn23)[C@H](O)[C@@H]1O)OCc1cc(F)cc(C#N)c1 [Compound 74, ((2R,3S,4R)-5-(4-aminopyrrolo[2,1-f][1,2,4]triazin-7-yl)-2-cyano-3,4-dihydroxytetrahydrofuran-2-yl)methyl ((S)-2-((3-cyano-5-fluorobenzyl)oxy)nonadecyl) hydrogen phosphate]",EC50,[1],85 nM
same,EC50,[2],24 nM
"CCCCCCCCCCCCCCCCCCOC[C@H](COP(=O)(O)OC[C@@]1(C#N)O[C@@H](c2ccc3c(N)ncnn23)[C@H](O)[C@@H]1O)OCc1ccc(C#N)c(Cl)c1 [Compound 7, ((2R,3S,4R,5S)-5-(4-aminopyrrolo[2,1-f][1,2,4]triazin-7-yl)-2-cyano-3,4-dihydroxytetrahydrofuran-2-yl)methyl ((R)-2-((3-chloro-4-cyanobenzyl)oxy)-3-(octadecyloxy)propyl) hydrogen phosphate]",EC50,[1],36 nM
same,EC50,[2],38 nM
"CCCCCCCCCCCCCCCCC[C@H](COP(=O)(O)OC[C@@]1(C#N)O[C@@H](c2ccc3c(N)ncnn23)[C@H](O)[C@@H]1O)OCc1cc(Cl)cc(C#N)c1 [Compound 76, ((2R,3S,4R)-5-(4-aminopyrrolo[2,1-f][1,2,4]triazin-7-yl)-2-cyano-3,4-dihydroxytetrahydrofuran-2-yl)methyl ((R)-2-((3-chloro-5-cyanobenzyl)oxy)nonadecyl) hydrogen phosphate]",EC50,[1],113 nM
"CCCCCCCCCCCCCCCCCC[C@H](COP(=O)(O)OC[C@@]1(C#N)O[C@@H](c2ccc3c(N)ncnn23)[C@H](O)[C@@H]1O)OCc1cc(Cl)cc(C#N)c1 [Compound 81, ((2R,3S,4R,5S)-5-(4-aminopyrrolo[2,1-f][1,2,4]triazin-7-yl)-2-cyano-3,4-dihydroxytetrahydrofuran-2-yl)methyl ((R)-2-((3-chloro-5-cyanobenzyl)oxy)icosyl) hydrogen phosphate]",EC50,[1],83 nM
"CCCCCCCCCCCCCCCCCCC[C@H](COP(=O)(O)OC[C@@]1(C#N)O[C@@H](c2ccc3c(N)ncnn23)[C@H](O)[C@@H]1O)OCc1cc(Cl)cc(C#N)c1 [Compound 82, ((2R,3S,4R,5S)-5-(4-aminopyrrolo[2,1-f][1,2,4]triazin-7-yl)-2-cyano-3,4-dihydroxytetrahydrofuran-2-yl)methyl ((R)-2-((3-chloro-5-cyanobenzyl)oxy)henicosyl) hydrogen phosphate]",EC50,[1],147 nM
"CCCCCCCCCCCCCCCCOC[C@@H](COP(=O)(O)OC[C@@]1(C#N)O[C@@H](c2ccc3c(N)ncnn23)[C@H](O)[C@@H]1O)OCc1cc(F)cc(C#N)c1 [Compound 88, ((2R,3S,4R,5S)-5-(4-aminopyrrolo[2,1-f][1,2,4]triazin-7-yl)-2-cyano-3,4-dihydroxytetrahydrofuran-2-yl)methyl ((S)-2-((3-cyano-5-fluorobenzyl)oxy)-3-(hexadecyloxy)propyl) hydrogen phosphate]",EC50,[1],38 nM
"CCCCCCCCCCCCCCCCCC[C@H](COP(=O)(O)OC[C@@]1(C#N)O[C@@H](c2ccc3c(N)ncnn23)[C@H](O)[C@@H]1O)OCc1cc(F)cc(C#N)c1 [Compound 84, ((2R,3S,4R,5S)-5-(4-aminopyrrolo[2,1-f][1,2,4]triazin-7-yl)-2-cyano-3,4-dihydroxytetrahydrofuran-2-yl)methyl ((R)-2-((3-cyano-5-fluorobenzyl)oxy)icosyl) hydrogen phosphate]",EC50,[1],9 nM
